Measurements from patent US20100216802A1, “PTERIDINE DERIVATIVES AS POLO-LIKE KINASE INHIBITORS USEFUL IN THE TREATMENT OF CANCER” (CHROMA THERAPEUTICS LTD., priority 2006, published 2010).

Experiments:
[1] = target: T1, PLK1 (Homo sapiens, UniProt P53350); assay: PLK1 enzyme assay (Z'-LYTE, Invitrogen); format: biochemical; details: ATP at or close to Km; read-out: Inhibitor Activity vs PLK1
T1 construct: purchased Invitrogen (Paisley, UK)
Description: The ability of compounds to inhibit PLK-1 kinase activity was measured in an assay performed by Invitrogen (Paisley, UK). The Z′-LYTE™ biochemical assay employs a fluorescence-based, coupled-enzyme format and is based on the differential sensitivity of phosphorylated and non-phosphorylated peptides to proteolytic cleavage. The peptide substrate is labelled with two fluorophores—one at each end—that make up a FRET pair. In the primary reaction, the kinase transfers the gamma-phosphate of ATP to a single serine or threonine residue in a synthetic FRET-peptide. In the secondary reaction, a site-specific protease recognizes and cleaves non-phosphorylated FRET-peptides. Phosphorylation of FRET-peptides suppresses cleavage by the Development Reagent. Cleavage disrupts FRET between the donor (i.e., coumarin) and acceptor (i.e., fluorescein) fluorophores on the FRET-peptide, whereas uncleaved, phosphorylated FRET-peptides maintain FRET. A […] method, which calculates the ratio (the Emission Ratio) of donor emission to acceptor emission after excitation of the donor fluorophore at 400 nm, is used to quantitate reaction progress.
The assay is performed at an ATP concentration at, or close to, the Km. After the 60 minute Kinase Reaction incubation at RT, 5 μL of a 1:8 dilution of Development Reagent is added. The assay plate is incubated for a further 60 minutes at RT and read on a fluorescence plate reader.
Duplicate data points are generated from a ⅓ log dilution series of a stock solution of test compound in DMSO. Nine dilutions steps are made from a top concentration of 10 μM, and a ‘no compound’ blank is included. Data is collected and analysed using XLfit software from IDBS.

[2] = tested on: HCT 116 cell line; assay: Cell inhibition assay method A (WST-1, 120 hrs); format: cell-based; details: Homo sapiens, HCT-116, method A, read-out: Inhibitor Activity vs HCT 116 cell line (method A)
Description: Cell inhibition assays were carried out using either method A or method B
Cells were seeded in 96W tissue culture plates (1 well=30 mm^2) at a density of […] per well in 50 μL of the appropriate culture medium (see below). 24 hrs later […] of the compound prepared in the same medium was added as 4 fold dilutions to give final concentrations in the range 0.15 nM-2500 nM (n=6 for each concentration). The plates were then incubated at 37° C., 5% CO2 for 120 hrs. Cell proliferation was assessed using WST-1 (a metabolic indicator dye, Roche Cat no. 1 644 807) according to the manufacturers instructions. The results were calculated as percentage of vehicle response and IC50 values represent the concentration of compound that inhibited the vehicle response by 50%.
HCT-116 culture medium —Dulbeccos MEM (Sigma D6546) plus 10% heat inactivated fetal calf serum (Hyclone SH30071 Thermo Fischer Scientific) containing 2 mM Glutamine (Sigma cat no G-7513) and 50 U/ml Penicillin and Streptomycin Sulphate (Sigma Cat no P-0781).

T1 sequence (P53350 whole entry): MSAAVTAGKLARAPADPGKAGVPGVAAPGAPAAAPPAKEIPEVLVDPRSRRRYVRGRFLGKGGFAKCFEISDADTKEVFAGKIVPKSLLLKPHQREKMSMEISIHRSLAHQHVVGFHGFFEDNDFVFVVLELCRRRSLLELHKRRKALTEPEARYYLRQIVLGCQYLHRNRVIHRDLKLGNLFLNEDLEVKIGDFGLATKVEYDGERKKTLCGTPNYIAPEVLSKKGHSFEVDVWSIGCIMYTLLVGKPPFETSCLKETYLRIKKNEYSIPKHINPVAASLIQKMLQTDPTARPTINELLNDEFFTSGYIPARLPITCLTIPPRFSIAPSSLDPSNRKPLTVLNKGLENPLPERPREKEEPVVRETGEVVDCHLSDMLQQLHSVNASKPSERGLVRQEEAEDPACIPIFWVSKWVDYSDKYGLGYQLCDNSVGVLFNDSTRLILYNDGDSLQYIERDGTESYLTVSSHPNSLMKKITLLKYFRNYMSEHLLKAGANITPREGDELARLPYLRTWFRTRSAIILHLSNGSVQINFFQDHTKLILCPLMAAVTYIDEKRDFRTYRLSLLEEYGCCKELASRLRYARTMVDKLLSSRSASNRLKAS

CC[C@@H]1C(=O)N(C)c2cnc(Nc3ccc(C(=O)NC4CCN(CC[C@H](N)C(=O)OC5CCCC5)C4)cc3OC)nc2N1C1CCCC1 (stereo partly shown) [Example 16]
IC50 [1]: < 100 nM | IC50 [2]: < 100 nM

CC[C@@H]1C(=O)N(C)c2cnc(Nc3ccc(C(=O)NC4CCN(CC[C@H](N)C(=O)OC(C)(C)C)CC4)cc3F)nc2N1C1CCCC1 [Example 29, t-Butyl (2S)-2-amino-4-{4-{(4-{[(7R)-8-cyclopentyl-7-ethyl-5-methyl-6-oxo-5,6,7,8-tetrahydropteridin-2-yl]amino}-3-fluorobenzoyl)amino]piperidin-1-yl}butanoate]
IC50 [1]: < 100 nM | IC50 [2]: < 100 nM

CC[C@@H]1C(=O)N(C)c2cnc(Nc3ccc(OCC[C@H](N)C(=O)OC4CCCC4)cc3OC)nc2N1C1CCCC1 [Example 4, Cyclopentyl O-(4-{[(7R)-8-cyclopentyl-7-ethyl-5-methyl-6-oxo-5,6,7,8-tetrahydropteridin-2-yl]amino}-3-methoxyphenyl)-L-homoserinate]
IC50 [1]: < 100 nM | IC50 [2]: < 100 nM

CC[C@@H]1C(=O)N(C)c2cnc(Nc3ccc(C(=O)Nc4ccc(/C=C/C[C@H](N)C(=O)OC5CCCC5)cc4)cc3OC)nc2N1C1CCCC1 [Example 20, Cyclopentyl (2S,4E)-2-amino-5-{4-[(4-{[(7R)-8-cyclopentyl-7-ethyl-5-methyl-6-oxo-5,6,7,8-tetrahydropteridin-2-yl]amino}-3-methoxybenzoyl)amino]phenyl}pent-4-enoate]
IC50 [1]: < 100 nM | IC50 [2]: < 100 nM

CC[C@@H]1C(=O)N(C)c2cnc(Nc3ccc(OCC[C@H](N)C(=O)OC4CCCC4)cc3)nc2N1C1CCCC1 [Example 3, Cyclopentyl O-(4-{[(7R)-8-cyclopentyl-7-ethyl-5-methyl-6-oxo-5,6,7,8-tetrahydropteridin-2-yl]amino}phenyl)-L-homoserinate]
IC50 [1]: < 100 nM | IC50 [2]: 100 to 500 nM

CC[C@@H]1C(=O)N(C)c2cnc(Nc3ccc(C(=O)NC4CCN(CCC[C@H](N)C(=O)OC(C)(C)C)CC4)cc3OC)nc2N1C1CCCC1 [Example 23, tert-butyl 5-{4-[(4-{[(7R)-8-cyclopentyl-7-ethyl-5-methyl-6-oxo-5,6,7,8-tetrahydropteridin-2-yl]amino}-3-methoxybenzoyl)amino]piperidin-1-yl}-L-norvalinate]
IC50 [1]: < 100 nM | IC50 [2]: < 100 nM

CC[C@@H]1C(=O)N(C)c2cnc(Nc3ccc(C(=O)Nc4ccc(C[C@H](N)C(=O)OC(C)(C)C)cc4)cc3OC)nc2N1C1CCCC1 [Example 11, tert-Butyl 4-[(4-{[(7R)-8-cyclopentyl-7-ethyl-5-methyl-6-oxo-5,6,7,8-tetrahydropteridin-2-yl]amino}-3-methoxybenzoyl)amino]-L-phenylalaninate]
IC50 [1]: < 100 nM | IC50 [2]: 100 to 500 nM

CC[C@@H]1C(=O)N(C)c2cnc(Nc3ccc(C(=O)NCc4ccc(OCC[C@H](N)C(=O)OC(C)(C)C)cc4)cc3OC)nc2N1C1CCCC1 [Example 12]
IC50 [1]: < 100 nM | IC50 [2]: < 100 nM

CC[C@@H]1C(=O)N(C)c2cnc(Nc3ccc(C(=O)NCCN4CCC(C[C@H](N)C(=O)OC5CCCC5)CC4)cc3OC)nc2N1C1CCCC1 [Example 10, Cyclopentyl 3-(1-{2-[(4-{[(7R)-8-cyclopentyl-7-ethyl-5-methyl-6-oxo-5,6,7,8-tetrahydropteridin-2-yl]amino}-3-methoxybenzoyl)amino]ethyl}piperidin-4-yl)alaninate]
IC50 [1]: < 100 nM | IC50 [2]: < 100 nM

CC[C@@H]1C(=O)N(C)c2cnc(Nc3ccc(C(=O)NC4CCN(CC[C@@H](N)C(=O)OC5CCCC5)C4)cc3OC)nc2N1C1CCCC1 (stereo partly drawn) [Example 17, Cyclopentyl (2R)-2-amino-4-{3-[(4-{[(7R)-8-cyclopentyl-7-ethyl-5-methyl-6-oxo-5,6,7,8-tetrahydropteridin-2-yl]amino}-3-methoxybenzoyl)amino]pyrrolidin-1-yl}butanoate]
IC50 [1]: < 100 nM | IC50 [2]: < 100 nM

CC[C@@H]1C(=O)N(C)c2cnc(Nc3ccc(C(=O)NC4CCN(CC[C@H](N)C(=O)OC(C)(C)C)CC4)cc3C)nc2N1C1CCCC1 [Example 26, t-Butyl (2S)-2-amino-4-{4-[(4-{[(7R)-8-cyclopentyl-7-ethyl-5-methyl-6-oxo-5,6,7,8-tetra hydropteridin-2-yl]amino}-3-methylbenzoyl)amino]piperidin-1-yl}butanoate]
IC50 [1]: < 100 nM | IC50 [2]: < 100 nM

CC[C@@H]1C(=O)N(C)c2cnc(Nc3ccc(C(=O)N[C@@H]4CN[C@H](C(=O)OC5CCCC5)C4)cc3OC)nc2N1C1CCCC1 [Example 6, Cyclopentyl (4S)-4-[(4-{[(7R)-8-cyclopentyl-7-ethyl-5-methyl-6-oxo-5,6,7,8-tetrahydropteridin-2-yl]amino}-3-methoxybenzoyl)amino]-L-prolinate]
IC50 [1]: < 100 nM | IC50 [2]: < 100 nM

CC[C@@H]1C(=O)N(C)c2cnc(Nc3ccc(C(=O)NCC[C@H](N)C(=O)OC4CCCC4)cc3OC)nc2N1C1CCCC1 [Example 5, Cyclopentyl (2S)-2-amino-4-[(4-{[(7R)-8-cyclopentyl-7-ethyl-5-methyl-6-oxo-5,6,7,8-tetrahydropteridin-2-yl]amino}-3-methoxybenzoyl)amino]butanoate]
IC50 [1]: < 100 nM | IC50 [2]: < 100 nM

CC[C@@H]1C(=O)N(C)c2cnc(Nc3ccc(C(=O)NCCN4CCNC(C(=O)OC(C)(C)C)C4)cc3OC)nc2N1C1CCCC1 (stereo partly drawn) [Example 15, tert-butyl 4-{2-[(4-{[(7R)-8-cyclopentyl-7-ethyl-5-methyl-6-oxo-5,6,7,8-tetrahydropteridin-2-yl]amino}-3-methoxybenzoyl)amino]ethyl}piperazine-2-carboxylate]
IC50 [1]: < 100 nM | IC50 [2]: < 100 nM

CC[C@@H]1C(=O)N(C)c2cnc(Nc3ccc(C(=O)NC4CCN(CC[C@H](N)C(=O)OC5CCCC5)CC4)cc3C)nc2N1C1CCCC1 [Example 28, Cyclopentyl (2S)-2-amino-4-(4-[(4-{[(7R)-8-cyclopentyl-7-ethyl-5-methyl-6-oxo-5,6,7,8-tetra hydropteridin-2-yl]amino}-3-methylbenzoyl)amino]piperidin-1-yl}butanoate]
IC50 [1]: < 100 nM | IC50 [2]: < 100 nM

CC[C@@H]1C(=O)N(C)c2cnc(Nc3ccc(C(=O)NCCN4CCNC(C(=O)OC5CCCC5)C4)cc3OC)nc2N1C1CCCC1 (stereo partly drawn) [Example 14, Cyclopentyl 4-{2-[(4-{[(7R)-8-cyclopentyl-7-ethyl-5-methyl-6-oxo-5,6,7,8-tetrahydropteridin-2-yl]amino}-3-methoxybenzoyl)amino]ethyl}piperazine-2-carboxylate]
IC50 [1]: < 100 nM | IC50 [2]: < 100 nM

CC[C@@H]1C(=O)N(C)c2cnc(Nc3ccc(C(=O)Nc4ccc(C[C@H](N)C(=O)OC5CCCC5)cc4)cc3OC)nc2N1C1CCCC1 [Example 7, Cyclopentyl 4-[(4-{[(7R)-8-cyclopentyl-7-ethyl-5-methyl-6-oxo-5,6,7,8-tetrahydropteridin-2-yl]amino}-3-methoxybenzoyl)amino]-L-phenylalaninate]
IC50 [1]: 100 to 500 nM | IC50 [2]: < 100 nM

CC[C@@H]1C(=O)N(C)c2cnc(Nc3ccc(C(=O)NC4CCN(CC[C@@H](N)C(=O)OC5CCCC5)CC4)cc3OC)nc2N1C1CCCC1 [Example 31, Cyclopentyl (2R)-2-amino-4-{4-[(4-{((7R)-8-cyclopentyl-7-ethyl-5-methyl-6-oxo-5,6,7,8-tetra hydropteridin-2-yl]amino}-3-methoxybenzoyl)amino]piperidin-1-yl}butanoate]
IC50 [1]: < 100 nM | IC50 [2]: < 100 nM

CC[C@@H]1C(=O)N(C)c2cnc(Nc3ccc(C(=O)NC4CCN(CCC[C@H](N)C(=O)OC5CCCC5)CC4)cc3OC)nc2N1C1CCCC1 [Example 24, Cyclopentyl 5-{4-[(4-{[(7R)-8-cyclopentyl-7-ethyl-5-methyl-6-oxo-5,6,7,8-tetrahydropteridin-2-yl]amino}-3-methoxybenzoyl)amino]piperidin-1-yl}-L-norvalinate]
IC50 [1]: < 100 nM | IC50 [2]: < 100 nM

CC[C@@H]1C(=O)N(C)c2cnc(Nc3ccc(C[C@H](N)C(=O)OC4CCCC4)cc3)nc2N1C1CCCC1 [Example 1, Cyclopentyl 4-{[(7R)-8-cyclopentyl-7-ethyl-5-methyl-6-oxo-5,6,7,8-tetrahydropteridin-2-yl]amino}-L-phenylalaninate]
IC50 [1]: < 100 nM | IC50 [2]: 100 to 500 nM
